Test results as given in patent publication US20050038113A1, “Valproic acid and derivatives for the combinatorial therapeutic treatment of human cancers and for the treatment of tumor metastasis and minimal residual disease” (G2M Cancer Drugs AG, priority 2001, published 2005).

Tests used:
[1] = dose finding experiment, VPA serum levels; type: in vivo, rat; conditions: chosen dosage protocol
Protocol: MT450 cells were grown in DMEM/W10% FCS medium and tested for absence of mycoplasms just prior to injection. Cells were washed twice in PBS and suspended to a density of 5×10^6 cells per ml of PBS. 5×10^5 cells in 0.1 ml of PBS were injected into each rat. […] Rats were left to grow primary tumors for 21 days. […] The solution was sterile filtered. The compound was applied by i.p. injection. […] Two doses per day were applied. Control animals received equal amounts of a sterile isotonic sodium chloride solution.
The experiment was terminated when tumor size in one of the rats of the control group had reached the legal limit of 50 mm. Necropsy at that time was performed on all rats of the experiment to assess lung metastasis. […] Metastasis was also found in 7 out of 8 VPA-treated rats. However, size and number of metastases were much smaller compared to NaCl-treated rats. A dose finding experiment had shown that the chosen dosage protocol lead to high initial serum levels (e.g. 3.6 mM at 1 hour after i.p. injection) which rapidly dropped (e.g. 0.25 mM at 4 hours after i.p. injection) below those levels which are maintained during therapy of epilepsy in human.

[2] = system: PML-RAR expressing leukemic cells; assay: survival of mice suffering from acute promyelocytic leukemia; type: in vivo
Protocol: Mice that developed leukemia after inoculation with PML-RAR expressing cells were sacrificed. Single-cell suspensions of spleenocytes were prepared, and secondary recipient mice were reinoculated with 10^7 cells.
The numbers in parentheses indicate the number of mice in the representative experiment shown.

Kasumi-1 cells = assay: viability, cell cycle and myeloid differentiation (morphology, NBT dye reduction); type: cell-based, human
Protocol: Cell numbers were evaluated and quantified by direct cell counting (trypan blue dye exclusion method) using a hematocytometer chamber and light microscopy. Morphological examination was performed by Wright-Giemsa stained cytospins; nitroblue tetrazolium (NBT) dye reduction assay, respectively. Each point represents the mean of a set of data determined in triplicate (Example 15).
Cases were classified according to the French-American-British (FAB) classification (Bennett et al., Ann Intern Med 103, 1985). Cytogenetic analysis and RT-PCR tests were performed to rule out the presence of the APL associated fusion genes according to standard methods as described (Mandelli et al., Blood 90, 1997; Mancini et al., Br J Haematol. 91, 1995; Grimwade et al., Blood 90, 1999).

histone deacetylases = conditions: cited from earlier work

CCCC(CCC)C(=O)O [VPA, 2-propylpentanoic acid]
serum level ([1]; 1 hour after i.p. injection): 3.6 mM | serum level ([1]; 4 hours after i.p. injection): 0.25 mM | leukemic blasts in peripheral blood, bone marrow, spleen ([2]; combination of retinoic acid and VPA, entire duration of the treatment): no leukemic blasts were observed | survival of leukemic mice ([2]; combination of retinoic acid pellet and VPA 400 mg/kg I.P. every 12 hours): greatest extension of survival | survival of leukemic mice ([2]; single agent: retinoic acid pellets subcutaneously, VPA 400 mg/kg I.P. every 12 hours): significantly extended survival | myeloid differentiation (Kasumi-1 cells; VPA as a single agent): partial myeloid differentiation | myeloid differentiation (Kasumi-1 cells; VPA in combination with RA): complete and thus synergistic myeloid differentiation | positive cells in the NBT dye reduction assay (Kasumi-1 cells; VPA in combination with RA): up to 65% | viability (Kasumi-1 cells; VPA in combination with RA): additive effect | cell cycle analysis (Kasumi-1 cells; combination of VPA plus RA compared to VPA or RA alone): enhanced cell cycle shift into G1 arrest | histone deacetylase inhibition (histone deacetylases): acts as an inhibitor of histone deacetylases
